Results as given in patent US5071845A, “Benzoxazepine derivative” (Suntory Limited, priority 1988, dated 1991).

Target: T1, 5HT1A serotonin receptor (Rattus norvegicus, UniProt P19327)
T1 construct: To the cerebral cortex enucleated from a Wistarstrain male rat; from tissue; host or cells: cerebral cortex of male Wistar rat, washed membrane homogenate
T1 sequence (P19327 1-422): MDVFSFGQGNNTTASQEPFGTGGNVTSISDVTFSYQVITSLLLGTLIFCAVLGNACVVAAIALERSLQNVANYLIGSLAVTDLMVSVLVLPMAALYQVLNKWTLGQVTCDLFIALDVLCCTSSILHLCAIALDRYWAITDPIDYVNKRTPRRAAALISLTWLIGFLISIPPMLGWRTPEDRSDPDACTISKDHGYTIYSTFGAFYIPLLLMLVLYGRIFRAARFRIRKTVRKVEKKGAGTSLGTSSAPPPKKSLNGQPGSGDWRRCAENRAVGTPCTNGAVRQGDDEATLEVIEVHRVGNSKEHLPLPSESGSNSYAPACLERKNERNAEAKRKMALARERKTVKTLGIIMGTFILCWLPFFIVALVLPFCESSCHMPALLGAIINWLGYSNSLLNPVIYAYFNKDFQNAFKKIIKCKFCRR
Test: Affinity for Serotonin Receptor ([3H]8-OH-DPAT binding, rat cerebral cortex homogenate)
Design: species or system rat (Wistar strain, male)
Conditions: [3H]8-OH-DPAT 0.4 nM, 25° C., 30 minutes
Description: The test was conducted according to the method of S. T. Perouka (J. Neurochem., 47, 529-540 (1986)).
To the cerebral cortex enucleated from a Wistarstrain male rat was added 50 mM Tris-HCl (pH 7.7) buffer and the mixture was homogenized by using Polytron®. The homogenate was centrifuged at 40,000 G for 10 minutes, and to the obtained precipitate was added the same buffer to effect homogenization, followed by incubation at 37° C. for 30 minutes. The suspension was centrifuged again at 40,000 G for 10 minutes, and to the obtained precipitate was added the same buffer to effect homogenization, followed by centrifugation at 40,000 G for 10 minutes. To the final obtained precipitate was added 50 mM Tris-HCl (10 μm pargyline, 4 mM CaCl2, 0.1% ascorbic acid) (pH 7.4) buffer, to effect homogenization, and the homogenate was used for the binding test. The (^3 H) 8-OH-DPAT used for the binding test was 0.4 nM, with a protein amount of 0.4 to 0.6 mg/ml, and a total amount of 1 ml. After incubation at 25° C. for 30 minutes, the mixture was filtered by a filtration method using a Whatman GF/B filter, and the filter was washed three times with 5 ml of the same buffer.
To the filter was added a scintillation cocktail, and a measurement was conducted by a liquid scintillation counter.

## O=C1COc2ccccc2C(=O)N1CCCCN1CCN(c2cccc(Cl)c2)CC1 [Example 39]
  IC50: 1.41 nM

## O=C1COc2cc(Cl)ccc2C(=O)N1CCCCN1CCN(c2ncccn2)CC1 [Example 64, 8-chloro-4-(4-(4-(2-pyrimidinyl)piperazinyl)butyl)-2,3,4,5-tetrahydro-1,4-benzoxazepine-3,5-dione]
  IC50: 4.1 nM

## COc1ccccc1N1CCN(CCCCN2CCOc3ccccc3C2=O)CC1 [Example 30]
  IC50: 2.62 nM

## O=C1COc2ccccc2C(=O)N1CCCCN1CCN(c2ncccn2)CC1 [Example 52, 4-(4-(4-(2-pyrimidinyl)piperazinyl)butyl)-2,3,4,5-tetrahydro-1,4-benzoxazepine-3,5-d]
  IC50: 3.75 nM

## O=C1c2ccccc2OCCN1CCCCN1CCN(c2ccccn2)CC1 [Example 27, 4-(4-(4-(2-pyridyl)piperazinyl)butyl)-2,3,4,5-tetrahydro-1,4-benzoxazepine-5-one]
  IC50: 6.15 nM

## COc1ccc2c(c1)C(=O)N(CCCCN1CCN(c3ncccc3Cl)CC1)C(=O)CO2 [Example 54, 7-methoxy-4-(4-(4-(3-chloro-2-pyridyl)-piperazinyl)butyl)-2,3,4,5-tetrahydro-1,4-benzoxazepine-3,5-dione]
  IC50: 4.91 nM

## Cc1ccc2c(c1)OCC(=O)N(CCCCN1CCN(c3ncccn3)CC1)C2=O [Example 70, 8-methyl-4-(4-(4-(2-pyrimidinyl)piperazinyl)butyl)-2,3,4,5-tetrahydro-1,4-benzoxazepine-3,5-dione]
  IC50: 4.75 nM

## O=C1COc2ccccc2C(=O)N1CCCCN1CCN(c2ccccc2Cl)CC1 [Example 36, 4-(4-(4-(2-chlorophenyl)piperazinyl)butyl)-2,3,4,5-tetrahydro-1,4-benzoxazepine-3,5]
  IC50: 2.31 nM

## Cc1ccc2c(c1)OCC(=O)N(CCCCN1CCN(c3ccccn3)CC1)C2=O [Example 65, 8-methyl-4-(4-(4-(2-pyridyl)piperazinyl)butyl)-2,3,4,5-tetrahydro-1,4-benzoxazepine-3,5-dione]
  IC50: 1.55 nM

## O=C1COc2cc(Cl)ccc2C(=O)N1CCCCN1CCN(c2ccccn2)CC1 [Example 59, 8-chloro-4-(4-(4-(2-pyridyl)piperazinyl)butyl)-2,3,4,5-tetrahydro-1,4-benzoxazepine-3,5-dione]
  IC50: 1.78 nM

## COc1ccc2c(c1)C(=O)N(CCCCN1CCN(c3ncccn3)CC1)C(=O)CO2 [Example 58, 7-methoxy-4-(4-(4-(2-pyrimidinyl)piperazinyl)butyl)-2,3,4,5-tetrahydro-1,4-benzoxaze-3,5-dione]
  IC50: 5.02 nM

## COc1ccc2c(c1)OCC(=O)N(CCCCN1CCN(c3ncccn3)CC1)C2=O [Example 72, 8-methoxy-4-(4-(4-(2-pyrimidinyl)piperazinyl)butyl)-2,3,4,5-tetrahydro-1,4-benzoxazepine-3,5-dione]
  IC50: 4.26 nM

## O=C1COc2ccccc2C(=O)N1CCCCN1CCN(c2ncccc2Cl)CC1 [Example 48]
  IC50: 2.77 nM

## O=C1COc2ccccc2C(=O)N1CCCCN1CCN(c2ccc(F)cc2)CC1 [Example 43, 4-(4-(4-(4-fluorophenyl)piperazinyl)-butyl)-2,3,4,5-tetrahydro-1,4-benzoxazepine-3,5]
  IC50: 2.48 nM

## COc1ccnc(N2CCN(CCCCN3C(=O)COc4ccccc4C3=O)CC2)n1 [Example 83, 4-(4-(4-(4-methoxy-2-pyrimidinyl)piperazinyl)butyl)-2,3,4,5-tetrahydro-1,4-benzoxazepine-3,5-dione]
  IC50: 4.16 nM
